Assay results reported in BindingDB's records for doi:10.1021/jm800476q (Bristol Myers Squibb, 2008).

Target: Hepatocyte growth factor receptor (Homo sapiens, UniProt P08581)
Assay: Met Kinase Inhibition Assay
Details: pH 7.5; 30 °C

Sequence of Hepatocyte growth factor receptor (P08581 whole entry): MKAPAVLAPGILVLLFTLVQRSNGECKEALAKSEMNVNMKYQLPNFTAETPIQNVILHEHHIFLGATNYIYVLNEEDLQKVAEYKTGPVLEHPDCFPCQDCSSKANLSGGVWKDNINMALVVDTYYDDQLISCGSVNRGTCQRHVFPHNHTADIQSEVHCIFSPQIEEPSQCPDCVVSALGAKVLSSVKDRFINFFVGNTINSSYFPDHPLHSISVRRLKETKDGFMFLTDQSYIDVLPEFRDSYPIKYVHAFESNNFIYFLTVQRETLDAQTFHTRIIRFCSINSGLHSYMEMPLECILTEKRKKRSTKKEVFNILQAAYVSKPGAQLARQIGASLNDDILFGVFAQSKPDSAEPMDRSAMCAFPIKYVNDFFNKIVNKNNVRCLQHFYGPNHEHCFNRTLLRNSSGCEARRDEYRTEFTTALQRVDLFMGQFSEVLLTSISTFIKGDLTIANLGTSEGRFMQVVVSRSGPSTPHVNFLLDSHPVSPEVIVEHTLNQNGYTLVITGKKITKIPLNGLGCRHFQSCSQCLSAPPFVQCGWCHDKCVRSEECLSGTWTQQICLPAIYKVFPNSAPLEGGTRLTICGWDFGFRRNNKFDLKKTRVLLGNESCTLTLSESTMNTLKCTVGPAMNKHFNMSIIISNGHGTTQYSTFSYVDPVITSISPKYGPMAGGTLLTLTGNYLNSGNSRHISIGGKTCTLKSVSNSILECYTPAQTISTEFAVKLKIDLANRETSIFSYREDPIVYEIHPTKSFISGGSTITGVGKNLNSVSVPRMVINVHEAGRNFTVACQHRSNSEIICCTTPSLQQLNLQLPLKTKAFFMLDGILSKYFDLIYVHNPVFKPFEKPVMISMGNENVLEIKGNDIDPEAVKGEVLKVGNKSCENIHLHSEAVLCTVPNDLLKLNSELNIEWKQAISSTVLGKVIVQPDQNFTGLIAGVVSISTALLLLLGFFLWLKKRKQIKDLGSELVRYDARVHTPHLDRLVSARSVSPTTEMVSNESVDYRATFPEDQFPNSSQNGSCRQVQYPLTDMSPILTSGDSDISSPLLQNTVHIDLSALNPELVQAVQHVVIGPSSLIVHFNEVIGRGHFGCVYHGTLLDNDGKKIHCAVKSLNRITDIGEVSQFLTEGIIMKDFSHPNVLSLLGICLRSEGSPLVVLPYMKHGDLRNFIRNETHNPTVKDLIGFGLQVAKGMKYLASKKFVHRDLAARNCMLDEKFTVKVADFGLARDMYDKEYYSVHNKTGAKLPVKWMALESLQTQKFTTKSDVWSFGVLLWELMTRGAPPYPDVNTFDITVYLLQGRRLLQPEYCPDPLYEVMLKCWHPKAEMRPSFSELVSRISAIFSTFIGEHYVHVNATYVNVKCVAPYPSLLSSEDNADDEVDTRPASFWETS

| IC50 [nM] | SMILES |
| --- | --- |
| 2.3 | COc1ccc(-n2cc(C(=O)Nc3ccc(Oc4ccnc5[nH]ccc45)c(F)c3)c(=O)c(-c3ccc(F)cc3)c2)cc1F [1-(3-fluoro-4-methoxyphenyl)-N-(3-fluoro-4-{1H-pyrrolo[2,3-b]pyridin-4-yloxy}phenyl)-5-(4-fluorophenyl)-4-oxo-1,4-dihydropyridine-3-carboxamide] |
| 5 | O=C(Nc1ccc(Oc2ccnc3[nH]ccc23)c(F)c1)c1cn(-c2ccc(Cl)c(F)c2)cc(-c2ccc(F)cc2)c1=O [1-(4-chloro-3-fluorophenyl)-N-(3-fluoro-4-{1H-pyrrolo[2,3-b]pyridin-4-yloxy}phenyl)-5-(4-fluorophenyl)-4-oxo-1,4-dihydropyridine-3-carboxamide] |
